Assays:
[1] = biological target: T1, human Edg-1(S1P1) (Homo sapiens, UniProt P21453); experiment: Cell system binding test: inhibition of [3H]-S1P binding to Edg-1(S1P1) gene transferred HEK-293 cells; details: 10 μM compound, [3H]-S1P 10 nM, read-out: Cell system binding test % inhibition (10 μM)
T1 construct: expressed in transfected cells; host or cells: HEK-293

[2] = biological target: T1, human Edg-1(S1P1); experiment: Membrane system binding test: inhibition of [33P]-S1P binding to the membrane fraction of Edg-1(S1P1) gene transferred HEK-293 cells; details: 10 μM compound, [33P]-S1P 0.1 nM, membrane fraction of Edg-1(S1P1) gene transferred HEK-293 cells; for inhibition at 10 µM: read-out: Membrane system binding test % inhibition (10 μM)
Procedure: The membrane fraction was obtained by treating the cells with a solubilizing buffer (1 mM Tris/HCl, pH 7.2) for 10 minutes on ice, centrifuging the system (1000×g, 5 min) to remove insoluble fractions, and then centrifuging the system (40000×g, 30 min, 4° C.). The resulting membrane fraction was dissolved in a binding buffer (20 mM Tris-HCl, pH 7.4, 100 mM NaCl, 15 mM NaF, 2 mM deoxypyridoxine, 4 mg/mL fatty acid-free BSA), and then [^33P]-S1P (produced by ARC, end concentration 0.1 nM) and a DMSO solution of the test compound (end concentration of the compound: 10^−5 M, end concentration of DMSO: 0.1%) were added, followed by stirring the mixture and subsequently treating it for 1 hour at 30° C. Using a harvester, the membrane fraction was harvested onto unifilter-96GF/C filter (produced by Perkin-Elmer). Then, the filter with the membrane fraction was washed 4 times with the binding buffer, and the filter was dried. To the filter, 25 μL Microscint 0 (produced by Perkin-Elmer) was added, and the assay system was measured for radioactivity by means of Top Count NXT (Packard). Based on the radioactivity, the amount (A) of binding of [^33P]-S1P to the membrane fraction upon addition of the compound was calculated.
The same procedure was performed in the absence of the test compound, and the amount (B) of binding of [^33P]-S1P was calculated. Moreover, the same procedure was performed in the absence of the test compound with the use of HEK-293 cells, to which the Edg-1(S1P1) gene had not been transferred, and the background amount (C) of binding of [^33P]-S1P was calculated.
The Edg-1(S1P1) binding inhibition rate of the compound, calculated from the following equation, is shown in […]

T1 sequence (P21453 whole entry): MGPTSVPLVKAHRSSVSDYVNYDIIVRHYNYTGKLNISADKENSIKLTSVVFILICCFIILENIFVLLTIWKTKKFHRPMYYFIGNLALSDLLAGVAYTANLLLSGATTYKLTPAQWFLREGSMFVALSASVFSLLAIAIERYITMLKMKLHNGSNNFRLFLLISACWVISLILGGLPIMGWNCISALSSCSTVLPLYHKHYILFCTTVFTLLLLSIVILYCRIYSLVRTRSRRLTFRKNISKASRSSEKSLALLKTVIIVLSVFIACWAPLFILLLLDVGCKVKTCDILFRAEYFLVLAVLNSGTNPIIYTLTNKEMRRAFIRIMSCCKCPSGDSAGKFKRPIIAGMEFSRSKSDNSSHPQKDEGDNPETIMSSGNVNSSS

SMILES | inhibition at 10 µM [1] | inhibition at 10 µM [2] | Membrane system binding test % inhibition (10 μM) [2]
CCn1c(SCc2ccc(SC)cc2)nnc1[C@@H](C)NS(=O)(=O)c1ccc(Cl)cc1 [Compound 60] | 90.3% | 97.2% | –
CCn1c(SCCc2ccccc2)nnc1[C@@H](C)NS(=O)(=O)c1ccc(Cl)cc1 [Compound 61] | 95% | 98.9% | –
CCn1c(SCCc2ccccn2)nnc1[C@@H](C)NS(=O)(=O)c1ccc(Cl)cc1 [Compound 62] | 92.9% | 90.6% | –
CCn1c(SCc2ccccn2)nnc1[C@@H](C)NS(=O)(=O)c1ccc(Cl)cc1 [Compound 63] | 93.7% | 99.7% | –
CCn1c(SCc2ccncc2)nnc1[C@@H](C)NS(=O)(=O)c1ccc(Cl)cc1 [Compound 64] | 91.3% | 86.5% | –
CCn1c(SCC2CCCN(C)C2)nnc1[C@@H](C)NS(=O)(=O)c1ccc(Cl)cc1 (stereo partly shown) [Compound 65] | 83.3% | 83.1% | –
CCn1c(SCCCCCCN(C)C)nnc1[C@@H](C)NS(=O)(=O)c1ccc(Cl)cc1 [Compound 66] | 84% | 90.6% | –
CCn1c(SCCCN(C)C)nnc1[C@@H](C)NS(=O)(=O)c1ccc(Cl)cc1 [Compound 67] | 73.8% | 42.2% | –
CCn1c(SCCCc2ccncc2)nnc1[C@@H](C)NS(=O)(=O)c1ccc(Cl)cc1 [Compound 68] | 93% | 97.9% | –
CCn1c(SCCc2ccncc2)nnc1[C@@H](C)NS(=O)(=O)c1ccc(Cl)cc1 [Compound 69] | 89.5% | 92.7% | –
CCn1c(SC2CCN(C)CC2)nnc1[C@@H](C)NS(=O)(=O)c1ccc(Cl)cc1 [Compound 70] | 88.4% | 98% | –
CCn1c(SCc2cccc(N(C)C)c2)nnc1[C@@H](C)NS(=O)(=O)c1ccc(Cl)cc1 [Compound 71] | 89.7% | 104% | –
CCn1c(SCC2CCN(Cc3ccccc3)CC2)nnc1[C@@H](C)NS(=O)(=O)c1ccc(Cl)cc1 [Compound 72] | 89.8% | 95.8% | –
CCn1c(SCCN2CCNC2=O)nnc1[C@@H](C)NS(=O)(=O)c1ccc(Cl)cc1 [Compound 73] | 93.9% | 98.4% | –
CCn1c(SCCNC(=O)c2ccncc2)nnc1[C@@H](C)NS(=O)(=O)c1ccc(Cl)cc1 [Compound 74] | 93.6% | 109% | –
CCN(CCSc1nnc([C@@H](C)NS(=O)(=O)c2ccc(Cl)cc2)n1CC)c1ccccc1 [Compound 75] | 92.7% | 99.4% | –
CCn1c(SCCC2CCN(C)CC2)nnc1[C@@H](C)NS(=O)(=O)c1ccc(Cl)cc1 [Compound 76] | 97.3% | 101% | –
CCn1c(SCCc2ccc(N(C)C)cc2)nnc1[C@@H](C)NS(=O)(=O)c1ccc(Cl)cc1 [Compound 77] | 89.4% | 96.4% | –
CCn1c(SCCN2CCCC2=O)nnc1[C@@H](C)NS(=O)(=O)c1ccc(Cl)cc1 [Compound 78] | 83% | 96.5% | –
CCn1c(SCCCN2CCCC2=O)nnc1[C@@H](C)NS(=O)(=O)c1ccc(Cl)cc1 [Compound 79] | 84.7% | 94.9% | –
CCn1c(SCCS(=O)(=O)c2ccccc2)nnc1[C@@H](C)NS(=O)(=O)c1ccc(Cl)cc1 [Compound 80] | 86.2% | 87.5% | –
CCn1c(SCc2ccc([N+](=O)[O-])cc2)nnc1[C@@H](C)NS(=O)(=O)c1ccc(Cl)cc1 [Compound 81] | 87.6% | 110% | –
CCn1c(SCc2ccc(NC(C)=O)cc2)nnc1[C@@H](C)NS(=O)(=O)c1ccc(Cl)cc1 [Compound 82] | 84.7% | 90.4% | –
CCn1c(SCC(N)=O)nnc1[C@@H](C)NS(=O)(=O)c1ccc(Cl)cc1 [Compound 83] | 85.6% | 99.5% | –
CCn1c(SCCn2ccnc2)nnc1[C@@H](C)NS(=O)(=O)c1ccc(Cl)cc1 [Compound 84] | 87.9% | 100% | –
CCn1c(SCCc2c[nH]c3ccccc23)nnc1[C@@H](C)NS(=O)(=O)c1ccc(Cl)cc1 [Compound 85] | 90.4% | 106% | –
CCn1c(SCCC23CC4CC(CC(C4)C2)C3)nnc1[C@@H](C)NS(=O)(=O)c1ccc(Cl)cc1 [Compound 86] | 93.4% | 110% | –

SMILES | inhibition at 10 µM [1] | inhibition at 10 µM [2] | Membrane system binding test % inhibition (10 μM) [2]
CCn1c(SCCCC(C)=O)nnc1[C@@H](C)NS(=O)(=O)c1ccc(Cl)cc1 [Compound 87] | 82.7% | 84.7% | –
CCn1c(SCCC(C)(C)C)nnc1[C@@H](C)NS(=O)(=O)c1ccc(Cl)cc1 [Compound 88] | 87.6% | 97.1% | –
C=CCSc1nnc(C(C)NS(=O)(=O)c2ccc(Cl)cc2)n1C (stereo not shown) [Compound 91] | 72.9% | 47.4% | –
C=CCSc1nnc([C@@H](C)NS(=O)(=O)c2ccc(Cl)cc2)n1CCC [Compound 95] | 94% | 60.2% | –
C=CCSc1nnc([C@@H](C)NS(=O)(=O)c2ccc(Cl)cc2)n1C(C)C [Compound 97] | 88.9% | 52.5% | –
C=CCSc1nnc(CNS(=O)(=O)c2ccc(Cl)cc2)n1CC [Compound 104] | 99.5% | 42.1% | –
C=CCSc1nnc([C@@H](CC)NS(=O)(=O)c2ccc(Cl)cc2)n1C [Compound 106] | 86.9% | – | 52.5%
C=CCSc1nnc(C(CC)NS(=O)(=O)c2ccc(Cl)cc2)n1CC (stereo not shown) [Compound 109] | 93% | 100% | –
C=CCSc1nnc([C@@H](CC)NS(=O)(=O)c2ccc(Cl)cc2)n1CCC [Compound 113] | 84% | – | 46.3%
C=CCSc1nnc([C@@H](CC)NS(=O)(=O)c2ccc(Cl)cc2)n1C(C)C [Compound 117] | 93.6% | 83.8% | –
C=CCSc1nnc([C@@H](Cc2ccccc2)NS(=O)(=O)c2ccc(Cl)cc2)n1C [Compound 134] | 88.8% | 84.8% | –
C=CCSc1nnc(C(Cc2ccccc2)NS(=O)(=O)c2ccc(Cl)cc2)n1C (stereo not shown) [Compound 135] | 86.7% | 96.9% | –
C=C(C)CSc1nnc(C(Cc2ccccc2)NS(=O)(=O)c2ccc(Cl)cc2)n1C (stereo not shown) [Compound 136] | 103% | 94.7% | –
Cn1c(SCc2ccc(Cl)c(Cl)c2)nnc1C(Cc1ccccc1)NS(=O)(=O)c1ccc(Cl)cc1 (stereo not shown) [Compound 137] | 99% | 57.1% | –
C=CCSc1nnc([C@@H](Cc2ccccc2)NS(=O)(=O)c2ccc(Cl)cc2)n1CC [Compound 138] | 94.7% | 102% | –
CCCSc1nnc([C@@H](Cc2ccccc2)NS(=O)(=O)c2ccc(Cl)cc2)n1CC [Compound 139] | 91% | 107% | –
C=CCSc1nnc([C@@H](Cc2ccccc2)NS(=O)(=O)c2ccc(Cl)cc2)n1CCC [Compound 141] | 94.8% | 79.5% | –
C=CCSc1nnc([C@@H](Cc2ccccc2)NS(=O)(=O)c2ccc(Cl)cc2)n1C(C)C [Compound 143] | 96% | 88.7% | –
C=CCSc1nnc(C(Cc2ccccc2)NS(=O)(=O)c2ccc(F)cc2)n1CC (stereo not shown) [Compound 169] | 67.5% | 72.9% | –
CCn1c(OC)nnc1[C@@H](C)NS(=O)(=O)c1ccc(Cl)cc1 [Compound 185] | 87.4% | 86.6% | –
CCOc1nnc([C@@H](C)NS(=O)(=O)c2ccc(Cl)cc2)n1CC [Compound 186] | 89.3% | 94.5% | –
CCn1c(OCCN(C)C)nnc1[C@@H](C)NS(=O)(=O)c1ccc(Cl)cc1 [Compound 187] | 82.9% | 46.4% | –
CCn1c(OCCCN(C)C)nnc1[C@@H](C)NS(=O)(=O)c1ccc(Cl)cc1 [Compound 188] | 82% | 46.3% | –
CCn1c(OCCCCCCN(C)C)nnc1[C@@H](C)NS(=O)(=O)c1ccc(Cl)cc1 [Compound 189] | 105% | 107% | –
CCn1c(OCCO)nnc1[C@@H](C)NS(=O)(=O)c1ccc(Cl)cc1 [Compound 190] | 91.1% | 41.3% | –
CCn1c(OCCCO)nnc1[C@@H](C)NS(=O)(=O)c1ccc(Cl)cc1 [Compound 191] | 97.1% | 88.3% | –
